Measurements reported in patent US12404250B2, “PARP inhibitors for treating cancer and asthma” (Oregon Health & Science University, priority 2018, dated 2025).

Assays:
Type in all cases: biochemical
PARP 2 = PARP 2 (Homo sapiens, UniProt Q9UGN5); test: In vitro IC50, PARP2; details: SEM from a minimum of three dose-response experiments
PARP12 = target: T1, PARP12 (Homo sapiens, UniProt Q9H0J9); test: In vitro IC50, immunoprecipitated GFP-PARP12 auto-MARylation
T1 construct: expressed in transfected cells; host or cells: HEK 293T
T1 sequence (Q9H0J9 1-701): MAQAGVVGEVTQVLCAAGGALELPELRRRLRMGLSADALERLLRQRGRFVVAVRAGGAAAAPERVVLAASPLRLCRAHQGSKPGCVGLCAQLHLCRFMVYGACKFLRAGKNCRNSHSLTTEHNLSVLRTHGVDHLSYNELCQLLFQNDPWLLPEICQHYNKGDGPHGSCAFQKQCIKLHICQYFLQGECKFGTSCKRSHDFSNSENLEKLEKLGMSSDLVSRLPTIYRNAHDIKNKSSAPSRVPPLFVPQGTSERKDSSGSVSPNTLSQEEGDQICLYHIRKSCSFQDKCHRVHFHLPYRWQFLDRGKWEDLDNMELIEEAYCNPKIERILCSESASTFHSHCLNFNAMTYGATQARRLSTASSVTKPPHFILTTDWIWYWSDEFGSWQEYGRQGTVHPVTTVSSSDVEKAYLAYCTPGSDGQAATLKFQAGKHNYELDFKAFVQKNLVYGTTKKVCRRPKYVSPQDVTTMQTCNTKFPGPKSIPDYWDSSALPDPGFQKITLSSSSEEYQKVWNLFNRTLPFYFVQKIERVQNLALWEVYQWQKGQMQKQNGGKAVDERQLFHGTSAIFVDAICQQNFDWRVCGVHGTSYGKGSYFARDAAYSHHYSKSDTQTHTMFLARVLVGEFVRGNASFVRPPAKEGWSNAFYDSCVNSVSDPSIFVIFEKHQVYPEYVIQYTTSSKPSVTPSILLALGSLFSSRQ
Experimental: (§1) Auto-MARylation was analyzed by Western blot with an ADP-ribose (ADPr) binding reagent (uncropped blots shown below).

PARP 1 = PARP 1 (Homo sapiens, UniProt P09874); test: In vitro IC50, PARP1; details: SEM from a minimum of three dose-response experiments
PARP10cat = target: T2, PARP10cat (Homo sapiens, UniProt Q53GL7); test: In vitro IC50, PARP10cat; details: SEM from a minimum of three dose-response experiments
T2 construct: bcat; cat; PARP11
T2 sequence (Q53GL7 806-1025 limits assumed): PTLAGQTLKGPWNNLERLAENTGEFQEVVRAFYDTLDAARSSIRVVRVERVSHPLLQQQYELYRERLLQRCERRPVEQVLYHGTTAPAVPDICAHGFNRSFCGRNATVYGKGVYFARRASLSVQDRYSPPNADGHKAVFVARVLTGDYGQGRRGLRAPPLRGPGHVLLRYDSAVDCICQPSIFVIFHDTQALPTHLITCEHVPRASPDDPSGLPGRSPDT

PARP14 cat-wwe = target: T3, PARP14 cat-wwe (Homo sapiens, UniProt Q460N5); test: In vitro IC50, PARP14 cat-wwe; details: SEM from a minimum of three dose-response experiments
T3 construct: PARP14 cat-wwe; no borders given for the assay protein
T3 sequence (Q460N5 1523-1801 limits assumed): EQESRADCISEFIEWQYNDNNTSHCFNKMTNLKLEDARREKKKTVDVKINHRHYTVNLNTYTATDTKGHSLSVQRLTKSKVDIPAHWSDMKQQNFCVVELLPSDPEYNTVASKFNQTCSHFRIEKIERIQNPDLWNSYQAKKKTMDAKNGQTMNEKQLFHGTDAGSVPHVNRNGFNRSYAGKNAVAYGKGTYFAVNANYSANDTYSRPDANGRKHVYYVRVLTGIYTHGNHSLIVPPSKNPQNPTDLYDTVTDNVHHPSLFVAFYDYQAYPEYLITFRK

PARP4 Brct-cat = target: T4, PARP4 Brct-cat (Homo sapiens, UniProt Q9UKK3); test: In vitro IC50, PARP4 Brct-cat; details: SEM from a minimum of three dose-response experiments
T4 construct: PARP4 Brct-cat
T4 sequence (Q9UKK3 1-573 limits assumed): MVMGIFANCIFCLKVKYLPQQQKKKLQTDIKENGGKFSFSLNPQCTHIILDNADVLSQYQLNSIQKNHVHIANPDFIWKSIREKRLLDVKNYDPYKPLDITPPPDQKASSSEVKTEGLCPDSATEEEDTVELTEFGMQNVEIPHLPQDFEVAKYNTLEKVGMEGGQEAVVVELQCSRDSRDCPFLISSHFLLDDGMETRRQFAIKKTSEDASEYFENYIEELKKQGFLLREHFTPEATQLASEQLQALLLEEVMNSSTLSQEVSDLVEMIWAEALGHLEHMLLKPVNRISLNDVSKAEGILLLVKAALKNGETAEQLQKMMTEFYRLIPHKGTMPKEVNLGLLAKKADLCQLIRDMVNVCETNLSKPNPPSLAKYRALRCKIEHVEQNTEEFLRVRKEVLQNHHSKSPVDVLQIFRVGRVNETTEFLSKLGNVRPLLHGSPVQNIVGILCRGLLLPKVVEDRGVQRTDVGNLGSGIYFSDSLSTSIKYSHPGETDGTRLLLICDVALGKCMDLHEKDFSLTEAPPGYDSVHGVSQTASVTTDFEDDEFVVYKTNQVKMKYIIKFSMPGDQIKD

PARP6 = target: T5, PARP6 (Homo sapiens, UniProt Q2NL67); test: In vitro IC50, immunoprecipitated GFP-PARP6 auto-MARylation
T5 construct: expressed in transfected cells; host or cells: HEK 293T
Experimental: as §1

PARP11 = target: T6, PARP11 (Homo sapiens, UniProt Q9NR21); test: In vitro IC50, PARP11 (plate assay, MARylation of SRPK2 and NXF1); details: SEM from a minimum of three dose-response experiments
T6 sequence (Q9NR21 1-338): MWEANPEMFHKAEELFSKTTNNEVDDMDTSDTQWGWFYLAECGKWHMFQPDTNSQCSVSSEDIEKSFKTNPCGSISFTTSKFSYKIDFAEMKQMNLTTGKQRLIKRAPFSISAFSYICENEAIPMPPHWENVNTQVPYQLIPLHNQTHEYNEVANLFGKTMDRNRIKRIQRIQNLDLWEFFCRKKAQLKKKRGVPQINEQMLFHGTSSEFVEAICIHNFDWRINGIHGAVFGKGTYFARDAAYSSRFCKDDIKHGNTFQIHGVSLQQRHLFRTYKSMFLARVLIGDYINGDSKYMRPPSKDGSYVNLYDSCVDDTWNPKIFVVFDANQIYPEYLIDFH
Text: Curves generated using Prism 7 (Graph Pad); error bars indicate ±SEM from at least two replicates.

T5 sequence (Q2NL67 whole entry): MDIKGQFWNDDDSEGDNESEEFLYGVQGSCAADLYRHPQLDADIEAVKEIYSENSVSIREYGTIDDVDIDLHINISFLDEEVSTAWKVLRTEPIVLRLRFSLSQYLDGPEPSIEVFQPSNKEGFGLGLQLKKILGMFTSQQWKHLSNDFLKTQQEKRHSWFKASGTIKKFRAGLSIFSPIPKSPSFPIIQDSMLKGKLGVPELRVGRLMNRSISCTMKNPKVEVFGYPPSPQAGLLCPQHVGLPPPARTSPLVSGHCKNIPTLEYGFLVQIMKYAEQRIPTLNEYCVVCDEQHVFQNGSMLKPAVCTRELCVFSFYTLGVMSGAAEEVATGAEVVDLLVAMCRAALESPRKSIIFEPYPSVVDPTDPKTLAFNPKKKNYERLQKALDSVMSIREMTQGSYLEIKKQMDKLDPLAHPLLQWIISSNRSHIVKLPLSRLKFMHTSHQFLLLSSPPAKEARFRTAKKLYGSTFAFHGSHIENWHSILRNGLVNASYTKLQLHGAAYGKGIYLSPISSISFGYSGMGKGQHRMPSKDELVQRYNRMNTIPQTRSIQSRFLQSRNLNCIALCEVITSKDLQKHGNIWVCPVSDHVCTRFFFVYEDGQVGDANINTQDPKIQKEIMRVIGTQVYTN
PARP 2, sequence (Q9UGN5 whole entry): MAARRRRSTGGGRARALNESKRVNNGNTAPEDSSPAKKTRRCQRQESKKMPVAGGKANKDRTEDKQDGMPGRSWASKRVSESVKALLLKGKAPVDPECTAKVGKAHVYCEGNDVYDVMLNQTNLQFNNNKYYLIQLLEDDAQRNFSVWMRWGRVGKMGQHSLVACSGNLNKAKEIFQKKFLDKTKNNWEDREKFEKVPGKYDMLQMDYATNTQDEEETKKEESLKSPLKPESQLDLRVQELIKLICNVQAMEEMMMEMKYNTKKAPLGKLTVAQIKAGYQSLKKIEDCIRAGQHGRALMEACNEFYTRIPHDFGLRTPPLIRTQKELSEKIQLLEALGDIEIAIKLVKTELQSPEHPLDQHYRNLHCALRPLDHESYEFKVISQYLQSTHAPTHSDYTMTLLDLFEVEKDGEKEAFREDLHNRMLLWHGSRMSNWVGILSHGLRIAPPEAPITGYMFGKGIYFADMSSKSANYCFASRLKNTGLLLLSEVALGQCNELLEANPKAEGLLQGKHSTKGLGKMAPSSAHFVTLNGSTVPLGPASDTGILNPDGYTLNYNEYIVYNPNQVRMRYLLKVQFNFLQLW
PARP 1, sequence (P09874 whole entry): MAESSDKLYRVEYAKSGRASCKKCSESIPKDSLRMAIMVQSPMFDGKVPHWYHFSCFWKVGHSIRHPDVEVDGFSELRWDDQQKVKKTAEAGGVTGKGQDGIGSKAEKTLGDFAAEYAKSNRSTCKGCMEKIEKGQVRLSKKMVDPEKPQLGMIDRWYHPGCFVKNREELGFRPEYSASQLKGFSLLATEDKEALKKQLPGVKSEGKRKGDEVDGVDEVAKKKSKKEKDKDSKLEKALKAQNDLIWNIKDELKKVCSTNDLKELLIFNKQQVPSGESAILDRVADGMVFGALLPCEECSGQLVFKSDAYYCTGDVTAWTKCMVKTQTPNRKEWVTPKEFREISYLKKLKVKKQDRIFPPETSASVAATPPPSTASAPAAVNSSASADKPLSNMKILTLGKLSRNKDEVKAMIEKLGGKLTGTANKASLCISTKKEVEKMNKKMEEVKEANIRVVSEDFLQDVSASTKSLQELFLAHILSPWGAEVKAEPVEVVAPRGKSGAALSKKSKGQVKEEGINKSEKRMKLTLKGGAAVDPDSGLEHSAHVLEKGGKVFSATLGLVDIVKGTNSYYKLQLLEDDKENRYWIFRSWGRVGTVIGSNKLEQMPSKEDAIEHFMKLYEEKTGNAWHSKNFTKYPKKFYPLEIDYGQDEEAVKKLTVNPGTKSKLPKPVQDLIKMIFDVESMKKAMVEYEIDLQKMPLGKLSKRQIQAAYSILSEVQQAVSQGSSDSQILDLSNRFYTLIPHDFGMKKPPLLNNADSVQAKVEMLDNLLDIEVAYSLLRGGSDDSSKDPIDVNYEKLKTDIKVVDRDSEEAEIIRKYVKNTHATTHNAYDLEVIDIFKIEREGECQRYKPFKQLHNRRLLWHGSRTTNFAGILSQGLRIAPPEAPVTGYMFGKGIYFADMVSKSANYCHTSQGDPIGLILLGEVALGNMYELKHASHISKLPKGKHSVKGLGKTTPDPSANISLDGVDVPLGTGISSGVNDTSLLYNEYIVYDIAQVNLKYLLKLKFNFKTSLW

## CC#Cc1ccc2c(=O)[nH]c(CSc3ncccn3)nc2c1C [ITK7, 8-methyl-7-(prop-1-yn-1-yl)-2-((pyrimidin-2-ylthio)methyl)quinazolin-4(3H)-one]
PARP 2
  IC50: > 30 µM
PARP12
  IC50: > 3 µM
PARP 1
  IC50: > 30 µM
PARP10cat
  IC50: 9.28 ± 1.57 µM
PARP14 cat-wwe
  IC50: 2.86 ± 0.35 µM
PARP4 Brct-cat
  IC50: > 30 µM
PARP6
  IC50: > 3 µM
PARP11
  IC50: 0.014 ± 0.003 µM

## CC#Cc1ccc2c(=O)[nH]c(CSc3ccc(C(=O)O)cc3)nc2c1C [ITK6, 4-(((8-methyl-4-oxo-7-(prop-1-yn-1-yl)-3,4-dihydroquinazolin-2-yl)methyl)thio) benzoic acid]
PARP10cat
  IC50: 0.156 ± 0.018 µM
PARP14 cat-wwe
  IC50: 0.917 ± 0.086 µM
PARP4 Brct-cat
  IC50: > 30 µM
PARP6
  IC50: > 3 µM
PARP11
  IC50: 0.099 ± 0.016 µM
